Experimental data as given in ChEMBL document CHEMBL1201862, “PubChem BioAssay data set” (2004).
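Tested at 5 concentrations; 48 h exposure; 96-well plates; endpoints linearly interpolated, else capped at highest concentration. The concentration for 50% growth inhibition is given as GI50.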 Active and inactive are the calls of the source. No stated cut-off is given here; in the data, active = GI50 up to about 1.1 µM and inactive = higher.

Key:
Assay in all cases: NCI tumour cell line growth inhibition, 48 h
Malme-3M = test system: Malme-3M
SK-OV-3 = test system: SK-OV-3
HCC 2998 = test system: HCC 2998
PC-3 = test system: PC-3
U-251 = test system: U-251
EKVX = test system: EKVX
SF-539 = test system: SF-539
NCI-H522 = test system: NCI-H522
COLO 205 = test system: COLO 205
786-0 = test system: 786-0
SK-MEL-5 = test system: SK-MEL-5
SW-620 = test system: SW-620
ACHN = test system: ACHN
IGROV-1 = test system: IGROV-1
T47D = test system: T47D
MDA-N = test system: MDA-N
TK-10 = test system: TK-10
NCI-H226 = test system: NCI-H226
SNB-19 = test system: SNB-19
UACC-62 = test system: UACC-62
OVCAR-4 = test system: OVCAR-4
SF-295 = test system: SF-295
BT-549 = test system: BT-549
A498 = test system: A498
DU-145 = test system: DU-145
SR = test system: SR
MCF7 = test system: MCF7
SF-268 = test system: SF-268
SNB-75 = test system: SNB-75
MDA-MB-435 = test system: MDA-MB-435
HOP-92 = test system: HOP-92
HCT-15 = test system: HCT-15
A549 = test system: A549
CCRF-CEM = test system: CCRF-CEM
OVCAR-3 = test system: OVCAR-3
SK-MEL-2 = test system: SK-MEL-2
HT-29 = test system: HT-29
HOP-62 = test system: HOP-62
NCI/ADR-RES = test system: NCI/ADR-RES
UO-31 = test system: UO-31
NCI-H23 = test system: NCI-H23
RPMI-8226 = test system: RPMI-8226
Hs-578T = test system: Hs-578T
KM12 = test system: KM12
HCT-116 = test system: HCT-116
MDA-MB-231 = test system: MDA-MB-231
SN12C = test system: SN12C
M14 = test system: M14
RXF 393 = test system: RXF 393
CAKI-1 = test system: CAKI-1
SK-MEL-28 = test system: SK-MEL-28
OVCAR-5 = test system: OVCAR-5
MOLT-4 = test system: MOLT-4
HL-60 = test system: HL-60
UACC-257 = test system: UACC-257
OVCAR-8 = test system: OVCAR-8
LOX IMVI = test system: LOX IMVI
NCI-H460 = test system: NCI-H460
K562 = test system: K562

Measured: GI50

O=C1C[C@@H](c2ccccc2)NCCCCN(O)CCCN1
inactive: Malme-3M > 100 µM | SK-OV-3 > 100 µM | HCC 2998 > 100 µM | PC-3 > 100 µM | U-251 > 100 µM | EKVX > 100 µM | SF-539 > 100 µM | NCI-H522 > 100 µM | COLO 205 > 100 µM | 786-0 > 100 µM | SK-MEL-5 > 100 µM | SW-620 > 100 µM | ACHN > 100 µM | IGROV-1 > 100 µM | T47D > 100 µM | MDA-N > 100 µM | TK-10 > 100 µM | NCI-H226 > 100 µM | SNB-19 28.4 µM | UACC-62 > 100 µM | OVCAR-4 88.5 µM | SF-295 > 100 µM | BT-549 > 100 µM | A498 > 100 µM | DU-145 > 100 µM | SR > 10 µM | MCF7 > 100 µM | SF-268 > 100 µM | SNB-75 > 100 µM | MDA-MB-435 > 100 µM | HOP-92 > 100 µM | A549 > 100 µM | CCRF-CEM > 100 µM | OVCAR-3 > 100 µM | SK-MEL-2 > 100 µM | HT-29 > 100 µM | HOP-62 > 100 µM | NCI/ADR-RES > 100 µM | UO-31 > 100 µM | NCI-H23 > 100 µM | RPMI-8226 22.3 µM | Hs-578T > 100 µM | KM12 > 100 µM | HCT-116 > 100 µM | MDA-MB-231 > 100 µM | SN12C > 100 µM | M14 > 100 µM | RXF 393 > 100 µM | CAKI-1 > 100 µM | SK-MEL-28 > 100 µM | OVCAR-5 > 100 µM | MOLT-4 > 100 µM | HL-60 > 100 µM | UACC-257 > 100 µM | OVCAR-8 > 100 µM | LOX IMVI > 100 µM
> 100 µM: HCT-15

COc1cc(-c2oc3ccccc3c(=O)c2O)cc(OC)c1OC
4.62 µM: HCT-15
inactive: Malme-3M > 94.6 µM | SK-OV-3 43.4 µM | HCC 2998 > 100 µM | PC-3 11.3 µM | U-251 8.77 µM | EKVX 25.3 µM | NCI-H460 4.19 µM | SF-539 26.3 µM | NCI-H522 11.4 µM | COLO 205 73.3 µM | 786-0 9.75 µM | SK-MEL-5 6.58 µM | SW-620 > 80.2 µM | K562 6.71 µM | ACHN 6.9 µM | IGROV-1 6.9 µM | T47D 6 µM | MDA-N > 26.1 µM | TK-10 29 µM | SNB-19 > 58.9 µM | UACC-62 6.5 µM | OVCAR-4 7 µM | SF-295 35.7 µM | BT-549 > 55.2 µM | A498 22 µM | DU-145 > 31.6 µM | SR 3.03 µM | MCF7 > 100 µM | SF-268 11.7 µM | SNB-75 6.82 µM | MDA-MB-435 > 100 µM | HOP-92 4.06 µM | A549 9.02 µM | CCRF-CEM 3.32 µM | OVCAR-3 4.28 µM | SK-MEL-2 > 100 µM | HT-29 > 74.8 µM | HOP-62 6.04 µM | NCI/ADR-RES 4.32 µM | UO-31 4.63 µM | NCI-H23 61 µM | RPMI-8226 3.43 µM | Hs-578T 8.22 µM | KM12 > 100 µM | HCT-116 10.3 µM | MDA-MB-231 42.4 µM | SN12C > 100 µM | M14 14 µM | RXF 393 15.6 µM | CAKI-1 26.2 µM | SK-MEL-28 > 100 µM | OVCAR-5 > 100 µM | MOLT-4 4.72 µM | HL-60 7.08 µM | UACC-257 > 69.3 µM | OVCAR-8 9.66 µM | LOX IMVI 6.24 µM

CCOC(=O)NC(OCCN(C)C)(C(F)(F)F)C(F)(F)F
> 100 µM: HCT-15
inactive: Malme-3M > 100 µM | SK-OV-3 > 100 µM | HCC 2998 > 100 µM | PC-3 > 100 µM | U-251 > 100 µM | EKVX > 100 µM | NCI-H460 > 100 µM | SF-539 > 100 µM | NCI-H522 > 100 µM | COLO 205 > 100 µM | 786-0 > 100 µM | SK-MEL-5 > 100 µM | SW-620 > 100 µM | K562 > 100 µM | ACHN > 100 µM | IGROV-1 > 100 µM | T47D > 100 µM | MDA-N > 100 µM | TK-10 > 100 µM | NCI-H226 > 100 µM | SNB-19 > 100 µM | UACC-62 > 100 µM | SF-295 > 100 µM | BT-549 > 100 µM | A498 > 100 µM | DU-145 > 100 µM | SR > 100 µM | MCF7 > 100 µM | SF-268 > 100 µM | SNB-75 > 100 µM | MDA-MB-435 > 100 µM | HOP-92 > 100 µM | A549 > 100 µM | CCRF-CEM > 100 µM | OVCAR-3 > 100 µM | SK-MEL-2 > 100 µM | HT-29 > 100 µM | HOP-62 > 100 µM | NCI/ADR-RES > 100 µM | UO-31 > 100 µM | NCI-H23 > 100 µM | RPMI-8226 > 100 µM | Hs-578T > 100 µM | KM12 > 100 µM | HCT-116 > 100 µM | MDA-MB-231 > 100 µM | SN12C > 100 µM | M14 > 100 µM | RXF 393 9.79 µM | CAKI-1 > 100 µM | SK-MEL-28 > 100 µM | OVCAR-5 > 100 µM | MOLT-4 > 100 µM | HL-60 > 100 µM | UACC-257 > 100 µM | OVCAR-8 > 100 µM | LOX IMVI > 100 µM
